Reference: patent publication US9518089B2, “Metallothionein-derived peptide fragments” (University of Tasmania, priority 2006, dated 2016)

How the values were obtained:
[1] = system: cerebellar granule neurons (CGN); experiment: Cell survival assay, low-potassium induced apoptosis of CGN; format: cell-based, rat; conditions: apoptosis induced by 5 mM KCl medium, 48 h; FIGS. 6-9
Description: Primary CGN cultures from seven days old rats were plated at a density of 100,000 cells/cm^2 in eight-well permanox chamber slides coated with poly-D-Lysine and grown in a medium supplemented with 40 mM KCl. After 24 hours cytosine-β-D-arabinofuranoside was added to the culture to inhibit proliferation of non-neuronal cells. Neurons were left to differentiate for further 6 days in vitro, before apoptosis was induced by shifting cells into a starving medium containing either 5 mM KCl alone (negative control), 40 mM KCl (positive control) or 5 mM KCl plus various concentrations of peptide. 48 hours after apoptosis induction cells were fixated and stained with Hoechst 33258. Neuronal viability was estimated by comparing the amount of live neurons with the total number of neurons based on nuclear morphology. Results (see FIGS. 6-9) from at least four independent experiments are expressed as percentage survival±SEM, with the negative control set at 100%. Statistics are performed with a Student's paired t-test. *=p<0.05, **=p<0.01, ***=p<0.001. CGN from 7-day-old rats were induced to differentiate for 7 days in a medium with a high potassium concentration after which the neurons were grown for two days in a low potassium medium either in the absence or presence of IGF-1 (positive control), or the MT-derived peptides.

[2] = system: cerebellar granule neurons (CGN); experiment: TUNEL assay (DNA fragmentation) in CGN; format: cell-based, rat; conditions: 24 h after apoptosis induction; FIG. 10
Description: Primary cultures of seven days old rats were plated, cultured and induced to under-go apoptosis as described above for neuronal survival, however cells were fixated 24 hour after apoptosis induction. By using the Fluorescien FragEL DNA fragmentation Kit, which label free DNA ends with a green fluorescent colour, the amount of neurons undergoing DNA fragmentation can be estimated and compared to the total amount of cells, which are stained with propidium idodide. Results (see FIG. 10) from at least four independent experiments are expressed as percentage TUNEL positive cells±SEM, with the negative control set at 100%. Statistics are performed with a Student's paired t-test. *=p<0.05, **=p<0.01, ***=p<0.001.

[3] = system: cerebellar granule neurons (CGN); experiment: Neuronal differentiation (neurite outgrowth) in primary CGN cultures; format: cell-based, rat; conditions: CGN grown 24 h in presence of peptide; FIGS. 1-5
Description: Primary cultures of cerebellar granule neurons (CGN) from seven days old rats were plated at a density of 10,000 cells/cm^2 in eight-well permanox chamber slides and left to differentiate for 24 hours in the presence of various concentrations of peptide. Cells were fixated and immuno-stained for GAP-43 to visualise only neurons. CGN cultures were fixed in 4% paraformaldehyde followed by blocking with 1% BSA and then incubateded with polyclonal rabbit antibodies against rat GAP-43 (Chemicon, AH Diagnostics, Aarhus, Denmark) (1:1000 dilution with 1% BSA) followed by incubation with secondary Alexa Fluor® 488 goat anti-rabbit antibodies (Molecular Probes, Eugene, Oreg., USA) (1:700 dilution with 1% BSA. Neurite length was estimated by means of a stereological approach (Rønn et al., 2000). Results are expressed as percentage neurite outgrowth±SEM, with the untreated controls set at 100%. Statistics are performed with a Student's paired t-test. *=p<0.05, **=p<0.01, ***=p<0.001. If not specifically indicated, four experiments were performed for each condition. 2.

MT2 protein (from Sigma) = experiment: Surface plasmon resonance (SPR) analysis of peptide binding to immobilized MT2; conditions: for ka / kd / Kd: 25° C., PBS pH 7.4, immobilized MT2; for binding to MT2 protein immobilized on a sensor chip: difference to blank chip
Description: FIG. 12 Binding of the MTAcc peptide to MT studied by means of SPR analysis. Approximately 2000 resonance units (RU) of the MT2 protein (Sigma) were immobilized on the sensor chip. The binding is given as the response difference between the binding to the sensor chip with the immobilized MT2 and a blank sensor chip (unspecific binding). The peptide was injected into the sensor chip at a concentration of 0.87 μM. The experiment was repeated four times. FIG. 13 Binding of the MTBcc peptide to MT studied by means of SPR analysis. Approximately 2000 resonance units (RU) of the MT2 protein (Sigma) were immobilized on the sensor chip. The binding is given as the response difference between the binding to the sensor chip with the immobilized MT2 and a blank sensor chip (unspecific binding). The peptide was injected into the sensor chip at a concentration of 8.32 μM. The experiment was repeated four times. FIG. 14 Binding of the MTAn peptide to MT studied by means of SPR analysis. Approximately 2000 resonance units (RU) of the MT2 protein (Sigma) were immobilized on the sensor chip. The binding is given as the response difference between the binding to the sensor chip with the immobilized MT2 and a blank sensor chip (unspecific binding). The peptide was injected into the sensor chip at a concentration of 1.7 μM. Analysis of binding was performed employing a BIAcoreX instrument (Biosensor AB, Uppsala, Sweden) at 25° C. using 10 mM pH 7.4 sodium phosphate containing 150 mM NaCl as running buffer (phosphate-buffered saline, PBS). The flow-rate was 5 μl/min. Data were analysed by non-linear curve-fitting using the manufacturer's software. The MT2 protein (from Sigma) was immobilized on a sensor chip CM5 using an amine coupling kit (Biosensor AB) as follows: the chip was activated by 20 μl activation solution; the protein was immobilized using 12 μl 20 μg/ml protein in 10 mM sodium phosphate buffer pH 6.0; the chip was blocked by 35 μl blocking solution. Various peptides at the indicated concentrations were injected into the sensor chip. The curve corresponding to the difference between binding to MT2 and a blank chip was used for analysis.

[4] = system: focal brain injury on the right fronto-parietal cortex; experiment: Neuronal rescue and tissue repair in vivo after focal brain injury (dry-ice lesion); set-up: species or system rat; conditions: rats, tetrameric form of peptide s.c. 10 mg/kg/injection, FIG. 11
Description: A focal brain injury on the right fronto-parietal cortex was made by applying a piece of dry-ice (−78° C.) directly onto the skull for 30 seconds in mice and 60 seconds in rats, as previously described in detail (Penkowa and Moos, 1995). The rats were treated s.c. with the tetrameric form of the MTAcc peptide ([…]) one day before lesion and one and two days after the lesion (10 mg/kg bodyweight/injection). Three days after the lesion animals were fixed by transcardial perfusion with paraformaldehyde. Histochemistry and immunohistochemistry (IHC) were performed on sections cut from organs taken from fixated animals. For immunohistochemical investigation, brains were dissected and postfixed in Zamboni's fixative for 2-3 hours, dehydraded in graded alcohol followed by xylol and subsequently embedded in paraffin before being cut in 3 μm frontal sections throughout the entire area of the lesion. Terminal deoxynucleotidyl transferase (TdT)-mediated deoxyuridine triphosphate (dUTP)-biotin nick end labeling (TUNEL) was performed using the Fragment End Labeling (FragEL™) Detection Kit (Calbiochem, USA, code QIA33). The FragEL kit contains all the materials used below and each step was performed according to the manufacturer's recommendations. Sections were also immunostained for markers of oxidative stress such as peroxynitrite-induced nitration of tyrosine residues (NITT) and malondialdehyde (MDA) andfor markers of inflammation such as interleukin (IL)-1, IL-12 and tumor necrosis factor (TNF) α, as described by Penkowa et al. (2000).

Substance	neuronal survival of CGN [1]	neurite outgrowth / differentiation of cerebellar primary neurons [3]	ka (MT2 protein (from Sigma))	kd (MT2 protein (from Sigma))	binding to MT2 protein immobilized on a sensor chip (MT2 protein (from Sigma))	other results
SAGSCKCKESKSTS [MTBcc]	promoted survival of CGN in a dose dependent manner	stimulated differentiation of cerebellar primary neurons	2.83 ± 0.93 × 10^3 M^−1 s^−1	5.01 ± 1.75 × 10^−4 s^−1	specifically bind	number of apoptotic neurons (TUNEL positive cells, DNA fragmentation) [2]: strongly reduced the number of apoptotic neurons
AQGSICKGASDKSS [MTAcc, tetrameric form used in vivo]	promoted survival of CGN in a dose dependent manner	stimulated differentiation of cerebellar primary neurons	4.54 ± 0.21 × 10^3 M^−1 s^−1	4.00 ± 0.27 × 10^−4 s^−1	specifically bind	number of apoptotic cells (TUNEL staining) ([4]; day -1, +1, +2, analysed 3 days after lesion): dramatic decrease of the number of apoptotic cell; inflammatory response to the lesion (IL-1, IL-12 and TNFα immunostaining) ([4]; 3 days after lesion): inhibition of the inflammatory response to the lesion; oxidative stress (NITT and MDA immunostaining) ([4]; 3 days after lesion): inhibition of oxidative stress; number of apoptotic neurons (TUNEL positive cells, DNA fragmentation) [2]: strongly reduced the number of apoptotic neurons; Kd (MT2 protein (from Sigma)): 89.5 nM
KKSSCSCSPVGSAK [MTAn]			1.57 ± 0.05 × 10^4 M^−1 s^−1	5.74 ± 0.19 × 10^−3 s^−1	specifically bind	Kd (MT2 protein (from Sigma)): 367 nM
KGGEAAEAEAEK (listed as Homo sapiens) [MT31p]	promoted survival of CGN in a dose dependent manner	no neuritogenic activity				
IGF-1: positive control in the CGN survival assay [reference compound]	could be prevented					
MDPNSSSAAGDSST (listed as Homo sapiens) [MTBn]	promoted survival of CGN in a dose dependent manner	no neuritogenic activity				
SAGSSKSKESKSTS (listed as Homo sapiens) [MTBc]	promoted survival of CGN in a dose dependent manner	stimulated differentiation of cerebellar primary neurons				
MDPNCSCAAGDSST (listed as Homo sapiens) [MTBnc]	promoted survival of CGN in a dose dependent manner	stimulated differentiation of cerebellar primary neurons				
AQGSISKGASDKSS (listed as Homo sapiens) [MTAc]	promoted survival of CGN in a dose dependent manner	stimulated differentiation of cerebellar primary neurons				
